Measurements from patent US10272061B2, “Compositions and methods for unoccluded transdermal oxybutynin therapy” (Allergan Sales, LLC, priority 2000, dated 2019).
Where two headings read alike, the source gives them in different places.

Experiments:
[1] = Plasma concentrations after single application of 4.4% oxybutynin topical gel to the abdomen; assay type: in vivo, human; settings: single 3 g of 4.4% oxybutynin gel, 400 cm^2 abdomen; for time over which mean plasma levels increased steadily to Cmax: 'during the following' hours
Description: (§1) A clinical study in 22 healthy volunteers, 19 to 45 years of age, evaluated plasma concentrations of oxybutynin and the N-desethyloxybutynin metabolite after a single topical application of oxybutynin gel. The study employed a single dose design to evaluate the pharmacokinetics and skin tolerability of a gel formulation for oxybutynin hydrochloride.
Volunteers received a single topical administration of 3 g of 4.4% oxybutynin gel to a 400 cm^2 area of unbroken skin on the abdomen. Blood samples were periodically collected throughout the study period and plasma was harvested according to standard procedures. Plasma oxybutynin and N-desethyloxybutynin metabolite concentrations were estimated using a high performance liquid chromatography-tandem mass spectrometry method performed according to established guidelines.

[2] = Single and multiple dose pharmacokinetics after oxybutynin gel administration; assay type: in vivo, human; settings: for mean Cmax: 72 hour evaluation; for half-life: read-out: elimination half-life (converted)
Experimental: A clinical study in 20 healthy volunteers, 20 to 44 years of age, evaluated the single and multiple dose pharmacokinetics of oxybutynin and N-desethyloxybutynin following topical oxybutynin gel administration. The study employed a two-period multiple dose study.
In the first treatment period, volunteers received a topical administration of 3 g of 4.4% oxybutynin gel followed by a 72 hour evaluation period. The second treatment period, oxybutynin gel was administered topically to the volunteers on 7 consecutive mornings. The two treatment periods were separated by a 7-day washout period. Blood samples were periodically collected throughout the study periods and plasma was harvested according to standard procedures. Plasma oxybutynin and N-desethyloxybutynin metabolite concentrations were estimated using high performance liquid chromatography-tandem mass spectrometry method performed according to established guidelines.
After a 7-day washout following the initial gel application, subjects applied daily 3 g doses of oxybutynin gel to rotating body sites (abdomen, upper arms, thighs) for 7 consecutive days. Plasma samples were drawn each morning before the next gel application.

[3] = Plasma concentrations after single application of 13.2% oxybutynin topical gel to the abdomen; assay type: in vivo, human; settings: single 1 g of 13.2% oxybutynin gel, 133 cm^2 abdomen; for time over which mean plasma levels increased steadily to Cmax: 'during the following' hours
Description: as §1
Volunteers received a single topical administration of 1 g of 13.2% oxybutynin gel to a 133 cm^2 area of unbroken skin on the abdomen. Blood samples were periodically collected throughout the study period and plasma was harvested according to standard procedures. Plasma oxybutynin and N-desethyloxybutynin metabolite concentrations were estimated using a high performance liquid chromatography-tandem mass spectrometry method performed according to established guidelines.

[4] = Single-dose pharmacokinetics after oxybutynin gel on 400 cm^2 and 800 cm^2 application areas on the thighs; assay type: in vivo, human; settings: 3 g of 4.4% oxybutynin gel; for Cmax: at 48 hours
Description: A clinical study in 21 healthy volunteers, 21 to 45 years of age, evaluated the effect of application surface area on the single-dose pharmacokinetic of oxybutynin following topical oxybutynin gel administration. The study employed a two-period, open-labeled, randomized crossover design to evaluate the effect of application surface area on the single dose pharmacokinetics and safety of a topical gel formulation of oxybutynin hydrochloride.
Volunteers received topical administrations of 3 g of 4.4% oxybutynin gel at the beginning of two 72 hour treatment periods, with a minimum six day washout separating the treatment periods. Each volunteer received a dose applied to a 400 cm^2 area in one treatment period, and a dose to an 800 cm^2 area the other treatment period. The sequential order of the treatment periods was randomized. Blood samples were periodically collected throughout the study periods and plasma was harvested according to standard procedures. Plasma oxybutynin and N-desethyloxybutynin metabolite concentrations were evaluated using high performance liquid chromatography-tandem mass spectrometry method performed according to established guidelines.

[5] = Plasma concentrations after single and repeated application of 4.4% oxybutynin gel to the abdomen; assay type: in vivo; settings: human, topical, once daily
Description: A clinical study in 12 healthy volunteers, 19 to 41 years of age, evaluated plasma concentrations of oxybutynin and the N-desethyloxybutynin metabolite after single and repeated topical applications of oxybutynin gel. The study employed a single-period, open-label, multiple dose design to evaluate the pharmacokinetics and skin tolerability of a gel formulation for oxybutynin hydrochloride.
Volunteers received topical administrations of 3 g of 4.4% oxybutynin gel on 3 consecutive mornings. Each volunteer received the oxybutynin gel administrations on a defined area of unbroken skin on the abdomen. Blood samples were periodically collected throughout the study period and plasma was harvested according to standard procedures. Plasma oxybutynin and N-desethyloxybutynin metabolite concentrations were estimated using high performance liquid chromatography-tandem mass spectrometry method performed according to established guidelines.

[6] = plasma, first period: single 3 g of 4.4% oxybutynin gel
[7] = second period: 7 consecutive daily 3 g gel applications
[8] = 400 cm^2 application area, thighs
[9] = 800 cm^2 application area, thighs
[10] = human, topical, plasma, read-out: elimination half-life (converted)
[11] = first period: single 3 g of 4.4% oxybutynin gel
[12] = second period, after the final of 7 daily gel applications

CCNCC#CCOC(=O)C(O)(c1ccccc1)C1CCCCC1 (stereo not shown) [N-desethyloxybutynin]
elimination half-life ([1]; plasma): approximately 26.81 hours | time of second plasma peak after dosing [1]: approximately 48 hours | mean maximum plasma concentration (Cmax) ([1]; healthy volunteers): 2.20 ng/mL | time at which measurable plasma levels were detectable (first sampling point) ([1]; healthy volunteers): 2 h | time over which mean plasma levels increased steadily to Cmax [1]: 28 h | mean Cmax [2, 6]: 4.50 ng/mL | mean AUC ([2]; plasma, first period: single 3 g of 4.4% oxybutynin gel, 72 hour treatment period): 157 ng·h/mL | mean AUC ([2]; plasma, second period, first 24 hours after the final of 7 daily 3 g gel applications): 125 ng·h/mL | time of maximum concentration after the final gel application [2, 7]: approximately 16 hours | mean Cmax following the final gel application ([2]; second period: 7 consecutive daily 3 g gel applications, N-desethyloxybutynin: maximum for the 0-24 hour interval): 6.44 ng/mL | elimination half-life ([3]; plasma): 19.53 h | mean Cmax ([3]; plasma, healthy volunteers): 1.12 ng/mL | time of second plasma peak after dosing [3]: approximately 48 hours | time at which measurable plasma levels were detectable (first sampling point) ([3]; healthy volunteers): 2 h | time over which mean plasma levels increased steadily to Cmax [3]: 28 h | mean plasma level at the initial peak [4, 8]: 2.21 ng/mL | time at which measurable plasma levels were detectable [4, 8]: ≤ 2 h | time of the initial plasma peak [4, 8]: 28 h | plasma peak during the first 24 hours following dosing [4, 9]: 2.39 ng/mL | Cmax ([4]; plasma N-desethyloxybutynin, 400 cm^2 application area): 2.72 ng/mL | Cmax ([4]; plasma, 800 cm^2 application area): 3.40 ng/mL

CCN(CC)CC#CCOC(=O)C(O)(c1ccccc1)C1CCCCC1 (stereo not shown) [oxybutynin]
Cmax ([1]; human, plasma, topical, healthy volunteers, read-out: mean maximum plasma concentration (Cmax)): 2.17 ng/mL | half-life [1, 10]: ~18.4 h | time of second plasma peak after dosing [1]: approximately 48 hours | time at which measurable plasma levels were detectable (first sampling point) ([1]; healthy volunteers): 2 h | time over which mean plasma levels increased steadily to Cmax [1]: 24 h | average plasma concentration during the 20 hours following the application ([2]; after the final of 7 daily 3 g gel applications): 6.22 ng/mL | mean oxybutynin AUC higher than mean N-desethyloxybutynin AUC [2, 11]: ~41% | mean oxybutynin Cmax higher than mean N-desethyloxybutynin Cmax [2, 11]: approximately 18% | time within which measurable plasma levels were detectable [2, 11]: two | Cmax ([2]; human, plasma, topical, 3 g of oxybutynin gel, once daily, second period: 7 consecutive daily 3 g gel applications, N-desethyloxybutynin: maximum for the 0-24 hour interval, read-out: mean Cmax following the final gel application): 9.01 ng/mL | concentration at 0 h ([2]; human, plasma, topical, 3 g of oxybutynin gel, once daily, second period: 7 consecutive daily 3 g gel applications, read-out: mean plasma concentration at Time 0 of the final gel application): 4.63 ng/mL | half-life ([2]; human, topical, 3 g of oxybutynin gel, once daily, plasma, after the final of 7 daily 3 g gel applications): ~24 h | AUC ([2]; human, topical, 3 g of oxybutynin gel, once daily, plasma, second period, first 24 hours after the final of 7 daily 3 g gel applications): 149 ng·h/mL | AUC ([2]; human, topical, plasma, first period: single 3 g of 4.4% oxybutynin gel, 72 hour treatment period): 186 ng·h/mL | half-life ([2]; human, topical, plasma, first period: single 3 g of 4.4% oxybutynin gel): ~18 h | mean Cmax [2, 6]: 6.35 ng/mL | mean oxybutynin AUC higher than mean N-desethyloxybutynin AUC [2, 12]: ~19% | mean oxybutynin Cmax higher than mean N-desethyloxybutynin Cmax [2, 12]: approximately 40% | time of maximum concentration after the final gel application [2, 7]: approximately 23 hours | concentration at 24 h ([5]; plasma, 3 g of 4.4% oxybutynin gel, after the initial application of 3 g of 4.4% oxybutynin gel, read-out: plasma concentration at the 24 hour post-dose timepoint, mean±SD): 4.02 ± 2.19 ng/mL | concentration at 24 h ([5]; plasma, 3 g of 4.4% oxybutynin gel, after the second daily application of 3 g of 4.4% oxybutynin gel, read-out: plasma concentration 24 hours after application, mean±SD): 4.47 ± 2.38 ng/mL | concentration at 24 h ([5]; plasma, 3 g of 4.4% oxybutynin gel, after the third daily application of 3 g of 4.4% oxybutynin gel, read-out: plasma concentration at the 24 hour post-dose timepoint, mean±SD): 5.86 ± 3.17 ng/mL | half-life ([5]; 3 g of 4.4% oxybutynin gel, plasma elimination after the third application of 4.4% oxybutynin gel, read-out: apparent half-life (converted)): ~18 h | Cmax ([5]; plasma, following the third application of 3 g of 4.4% oxybutynin gel, read-out: Cmax, mean±SD): 6.05 ± 3.21 ng/mL | Cmax ([3]; human, topical, plasma, healthy volunteers): 1.17 ng/mL | half-life [3, 10]: 17.7 h | time of second plasma peak after dosing [3]: approximately 48 hours | time at which measurable plasma levels were detectable (first sampling point) ([3]; healthy volunteers): 2 h | time over which mean plasma levels increased steadily to Cmax [3]: 26 h | time at which measurable plasma levels were detectable [4, 8]: 2 h | time of the initial plasma peak [4, 8]: 24 h | plasma peak during the first 24 hours following dosing [4, 9]: 2.92 ng/mL | concentration at 24 hours ([4]; human, plasma, topical, 400 cm^2 application area, thighs, read-out: mean plasma level at the initial peak): 2.25 ng/mL | Cmax ([4]; human, topical, plasma, 800 cm^2 application area, read-out: Cmax): 3.8 ng/mL
